Numbers after ± are expanded uncertainties.
What was measured:
[1] = mn = molality of the nth substance listed, in mol/kg; conditions: 100 kPa, Liquid; for viscosity: Capillary tube (Ostwald / Ubbelohde) method; for speed of sound: Frequency=2 MHz, Linear variable-path acoustic interferometer
[2] = 100 kPa, Liquid, Capillary tube (Ostwald / Ubbelohde) method

Row | Compound | viscosity ([1]; 298.15 K, m2 = 0) | speed of sound ([1]; 298.15 K, m2 = 0) | viscosity ([1]; 303.15 K, m2 = 0) | viscosity ([1]; 308.15 K, m2 = 0) | viscosity ([1]; 313.15 K, m2 = 0) | speed of sound ([1]; 313.15 K, m2 = 0) | further results
1 | CCCCn1cc[n+](C)c1.[Cl-] [1-butyl-3-methylimidazolium chloride] + O |  |  |  |  |  |  | viscosity ([1]; 298.15 K, m1 = 0.0155): 0.8976 ± 0.019 mPa·s; viscosity ([1]; 298.15 K, m1 = 0.0257): 0.9023 ± 0.019 mPa·s; viscosity ([1]; 298.15 K, m1 = 0.0567): 0.9166 ± 0.019 mPa·s; viscosity ([1]; 298.15 K, m1 = 0.0653): 0.9205 ± 0.019 mPa·s; viscosity ([1]; 298.15 K, m1 = 0.0782): 0.9265 ± 0.019 mPa·s; viscosity ([1]; 298.15 K, m1 = 0.0895): 0.9317 ± 0.019 mPa·s; viscosity ([1]; 298.15 K, m1 = 0.0923): 0.933 ± 0.019 mPa·s; viscosity ([1]; 298.15 K, m1 = 0.1052): 0.9389 ± 0.02 mPa·s; viscosity ([1]; 298.15 K, m1 = 0.1123): 0.9422 ± 0.02 mPa·s
2 | O [water] |  |  |  |  |  |  | viscosity ([2]; 298.15 K): 0.8905 ± 0.019 mPa·s; viscosity ([2]; 303.15 K): 0.7977 ± 0.017 mPa·s; viscosity ([2]; 308.15 K): 0.7195 ± 0.015 mPa·s; viscosity ([2]; 313.15 K): 0.6532 ± 0.014 mPa·s
3 | O [water] + CCCCn1cc[n+](C)c1.[Cl-] | 0.8905 ± 0.019 mPa·s |  |  |  |  |  | 
4 | O [water] + CC(C)C[P+](C)(CC(C)C)CC(C)C.Cc1ccc(S(=O)(=O)[O-])cc1 | 0.8905 ± 0.019 mPa·s | 1497.6 ± 4.3 m/s | 0.7977 ± 0.017 mPa·s | 0.7195 ± 0.015 mPa·s | 0.6532 ± 0.014 mPa·s | 1528.5 ± 4.3 m/s | 
5 | O [water] + CCCC[P+](C)(CCCC)CCCC.COS(=O)(=O)[O-] | 0.8905 ± 0.019 mPa·s | 1497.6 ± 4.3 m/s | 0.7977 ± 0.017 mPa·s | 0.7195 ± 0.015 mPa·s | 0.6532 ± 0.014 mPa·s | 1528.5 ± 4.3 m/s | 
6 | O [water] + CCCC[P+](CCCC)(CCCC)CCCC.[Cl-] | 0.8905 ± 0.019 mPa·s | 1497.6 ± 4.3 m/s | 0.7977 ± 0.017 mPa·s | 0.7195 ± 0.015 mPa·s | 0.6532 ± 0.014 mPa·s | 1528.5 ± 4.3 m/s | 

— the NIST ThermoML archive (doi:10.1016/j.jct.2015.09.029)
